Source: PMC5730592, “Parallelogram based approach for in vivo dose estimation of genotoxic metabolites in humans with relevance to reduction of animal experiments” (Scientific Reports, 2017)
“And” between values parts separate entries of the source, which are not always exact repeats. Identical values can stand only once. Like-named read-outs stand apart in the source and are kept apart here.

What was measured:
[1] = cited from earlier work
in vitro = conditions: for Vmax (SE), GA elimination: GA 2–50 μM, 10 min, pH 7.5, 37 °C, n = 7 × 2; for EE = Vmax/Km, GA elimination / Km: male, pH 7.5
Method: As the parameters Vmax and Km were determined by the same experimental setup, the enzyme efficiency (EE) for the metabolic reactions is calculated as the ratio of Vmax to Km.
The metabolic system was similar to that we used in our earlier work[20] and is described in Supplementary information Note 1. […] The mixture was centrifuged (500 × g, 4 min) and supernatant treated as described below.
The supernatant (300 μL) obtained following centrifugation in the metabolism experiments was added to a cob(I)alamin solution (200 μL) in water. The reaction was continued under argon atmosphere for 20 min, and subsequently a gentle stream of air was passed to oxidize any reduced cobalamin. Analysis of the solution was performed by liquid chromatography tandem mass spectrometry (LC-MS/MS). The MS was operated using electrospray positive-ionization (ESI^+) and quantification performed using multiple reaction monitoring (MRM) mode. Method for preparation of cob(I)alamin solution from hydroxocobalamin and analysis of the generated alkylcobalamins, GA-Cbl from GA and PO-Cbl from PO, were similar to our earlier work[8] and are described under Supplementary information Notes 2–4.
The area under MRM peaks from GA-Cbl and PO-Cbl were measured with Analyst software version 1.5 from AB Sciex. Using calibration curve obtained for GA using inactivated S9 as matrix, the concentrations of GA in the metabolism studies were determined as described earlier by us[8]. The metabolic data was used to obtain Lineweaver-Burk plot for graphical representation of studied enzyme kinetics. Apparent values for the respective maximum velocity (Vmax) of the enzymatic conversion, the Michaelis constant (Km) and standard error were estimated by nonlinear fitting using the Hill function in Origin version 2015 (OriginLab, Northampton, MA, USA).
To human or rat liver S9 fraction (150 μL, 1–5 mg proteins) at 4 °C in a 2 mL vial with a screw-tight cap were added aqueous KCl (0.15 M, 300 μL), MgSO4 (80 mM, 150 μL), glucose-6-phosphate (50 mM, 150 μL) and NADP (40 mM, 150 μL), and the volume was made up to 1.5 mL with pH 7.5 phosphate buffer. The mixture was incubated for 5 min at 37 °C prior to the addition of the substrate.

[2] = parameters: method as in Doerge at al. (2005); conditions: male F344 rats, single dietary exposure ca. 100 µg AA/kg bw, n = 7, direct measurements; ref Doerge at al. (2005); cited from earlier work
[3] = Parallelogram approach estimation of AUC-GA in rat
Description: (§1) The parallelogram approach representing inter-species comparison of in vivo dose and the use of in vitro data is shown in Fig. 1 for the metabolic transformation of R to RX, which is referred to as the metabolism of AA to GA in the present study. This figure can be formulated to Eq. 1 as described in Methods (cf. Eq. 5), where the superscripts H and R represent the corresponding AUC or EE in human and rat, respectively.1 AUC^H−RX/AUC^R−RX=EE^H−R→RX/EE^H−RXel/EE^R−R→RX/EE^R−RXel×AUC^H−R/AUC^R−R
(§2) The in vitro data on enzyme kinetics from human and rat (Table 1), and the in vivo data on AUC of AA and of GA in rat (Table 2) were used to calculate the predictive value of AUC-GA per AUC-AA in human, according to the parallelogram approach (cf. Methods, Eq. 5). This was calculated to 0.087 (Table 3). […] It was observed that the AUC-GA in human and rat predicted by the parallelogram approach and from measured Hb adduct levels, respectively, differed with about a factor of 3 (cf. Tables 2 and 3). This difference is within the variability range of AUC-GA for respective species calculated from different in vivo studies. […]

[4] = cited from earlier work; remark: listed apart in the source
[5] = Parallelogram approach estimation of AUC-GA in human; conditions: predicted ratio × measured human AUC-AA
Description: as §1, §2

[6] = parameters: method as in PMID 15668111; conditions: 37 °C; cited from earlier work
[7] = male rat, different AA exposure studies, various methods; cited from earlier work

## NC(=O)C1CO1 (racemic) [GA, rac-Glycidamide]
[1]; Rat (male F344), 500 and 2000 μg AA/kg bw and day in drinking water, one week, n = 6, from Hb adducts
  AUC-GA: 18 nM·h/μg AA per kg bw and 18 ± 1 nM·h/μg AA per kg bw
[1]; SD rat (male), subchronic intraperitoneal AA, Hb adducts on cysteine site
  AUC of GA: 16.3 nM·h per μg AA per kg bw
[1]; male F344 rats, single dose 0.1 mg AA/kg bw, Hb adducts, ref Tareke et al. (2006)
  AUC-GA: 14 nM·h/ μg AA per kg bw
In vitro; Human S9
  Vmax (SE), GA elimination: 1.6 (0.7) nmol·mg protein^−1·min^−1
In vitro; Rat S9 (male SD)
  Vmax (SE), GA elimination: 0.26 (0.02) nmol·mg protein^−1·min^−1
In vitro; liver S9, human vs. rat
  EE of elimination of GA, human compared to rat (times faster in human): ca. 1.5 times
In vitro; liver S9, rat vs. human
  EE of oxidative formation of GA, rat compared to human (times faster in rat): ca. 4 times
  EE ratio of AA → GA to that of GAel, rat compared to human (times higher in rat): ca. 6 times
In vitro; Sprague-Dawley, rat
  EE = Vmax/Km, GA elimination: 43 μL·mg protein^−1·min^−1
  Km: 6 µM
In vitro; human
  EE = Vmax/Km, GA elimination: 62 μL·mg protein^−1·min^−1
  Km: 26 µM
[2]
  AUC-GA: 19 nM·h/ μg AA per kg bw
[3]; Rat, predicted ratio × measured rat AUC-AA
  AUC-GA estimated from the parallelogram approach: 48 nM·h/μg AA per kg bw
[3]; from the parallelogram approach
  ratio between species (rat-to-human) of AUC-GA per AUC-AA: 16
[4]; Human, AA-rich food 4 days, 11 μg AA/kg bw, adducts to N-terminal valine
  daily Hb adduct level increment per exposure dose: 1.02 pmol/g globin per μg AA/kg bw and day
[4]; Human, ca. 11 μg AA/kg bw and day through food, 4 days, n = 9, from Hb adducts
  AUC-GA: 49 nM·h/μg AA per kg bw and 49 ± 17 nM·h/μg AA per kg bw
[4]; Humans, ca. 2.5 μg AA/kg bw daily through food, 28 days, n = 9, ref Vikström et al. (2011)
  AUC-GA: 21 nM·h/ μg AA per kg bw
[4]; Humans, single dose in drinking water 500, 1000 and 3000 µg AA/kg bw, n = 6 males, ref Fennell et al. (2005)
  AUC-GA: 60 nM·h/ μg AA per kg bw
[5]
  AUC-GA estimated from the parallelogram approach: 18 nM·h/μg AA per kg bw and 18^a nM·h/μg AA per kg bw
[6]
  half-life of hydrolysis of GA in an aqueous solution: 43 h
  rate of hydrolysis of GA in an aqueous solution: 0.016 h⁻¹
[7]
  range of AUC-GA: 13–52 nM·h per μg AA per kg bw
